In patent US11214556B1, “Method of treating colorectal cancer” (King Abdulaziz University, priority 2019, dated 2022):

Tests used:
HCT-116 cells = test: SRB cytotoxicity assay, HCT-116; type: cell-based, human; conditions: SRB assay, 72 h exposure, ± SEM
Method: Compounds in this study were tested against colorectal cancer cell line HCT-116, using sulforhodamine-B (SRB) assay. See Skehan, P.; Storeng, R.; Scudiero, D.; Monks, A.; McMahon, J.; Vistica, D.; Warren, J. T.; Bokesch, H.; Kenney, S.; Boyd, M. R., New colorimetric cytotoxicity assay for anticancer-drug screening. J Natl Cancer Inst 1990, 82 (13), 1107-12, incorporated herein by reference in its entirety. […] However, it was clear that compounds bearing hydrophobic aliphatic groups such as MOS-1505 and MOS-1512 are clearly favored in providing anticancer activities. […] The N-aryl substituents were less advantageous in both potency and solubility.
(§1) Different cell lines were originally purchased from American type culture collection (ATCC, Wesel, Germany) and grown in the tissue culture lab of the Egyptian company for production of vaccines, sera and drugs (Vacsera, Giza, Egypt). The cells were transferred to our laboratory and maintained in the appropriate media as following. HCT-116, CACO-2, and HT-29 (human colon cancer cell lines) were maintained in Roswell Park Memorial Institute medium (RPMI1640) (Invitrogen, Carlsbad, Calif.). The mouse skin fibroblasts (C-166) and Baby Hamster Kidney fibroblasts (BHK) were grown in Dulbecco Modified Eagle's medium (DMEM). Both media were supplemented with 1% of […] of streptomycin, 100 units/mL of penicillin and 10% of heat-inactivated fetal bovine serum (Invitrogen, Carlsbad, Calif.) in a humidified, 5% (v/v) CO2 atmosphere at 37° C.
(§2) The sulforhodamine B (SRB) assays were performed according to Skehan, P.; Storeng, R.; Scudiero, D.; Monks, A.; McMahon, J.; Vistica, D.; Warren, J. T.; Bokesch, H.; Kenney, S.; Boyd, M. R., New colorimetric cytotoxicity assay for anticancer-drug screening. J Natl Cancer Inst 1990, 82 (13), 1107-12, incorporated herein by reference in its entirety. Briefly, exponentially growing cells were trypsinized, counted and seeded at the appropriate densities (5000 cells/100 μL/well) into 96-well microtiter plates. Cells were incubated in a humidified atmosphere at 37° C. for 24 h. Then, the cells were exposed to different compounds at the desired concentrations, (0.01, 0.1, 1, 10, and 100 μM) or to 1% dimethyl sulfoxide (DMSO) for 72 h. At the end of the treatment period, the media were removed, and the cells were fixed with 10% trichloroacetic acid at 4° C. for 1 hr. Following, the cells were washed with tap water four times and incubated with SRB 0.4% for 30 min. Excess dye was removed by washing repeatedly with 1% (vol/vol) acetic acid. The protein-bound dye was dissolved in 10 mM Tris base solution for (optical density) OD determination at 510 nm using a SpectraMax plus Microplate Reader (Molecular Devices, CA). Cell viability was expressed relative to the untreated control cells.

Solubility profile = type: physicochemical; conditions: stated in words together with C log P
[1] = system: CRC cell lines (HCT-116, Caco-2 and HT-29); test: Cytotoxic activities against CRC cell lines (statement over three lines); type: cell-based; conditions: Homo sapiens
Text: (§3) Based on the favorable pharmacologic and physicochemical properties of MOS-1512, it was selected as a new lead for the second subset of compounds (MOS-1812 to MOS-5112). The compounds in this series contained variable groups at R^1 and R^2 that were all tested against the three cancer cell lines (HCT-116, Caco-2 and HT-29).
as §1, §2

CACO-2 cells = test: SRB cytotoxicity assay, CACO-2; type: cell-based, human; conditions: ± SEM
Text: as §3, §1, §2

HT-29 cells = test: SRB cytotoxicity assay, HT-29; type: cell-based, human; conditions: 72 h exposure, ± SEM
Text: as §3, §1, §2

[2] = Homo sapiens, Caco-2, 72 h exposure

Row | SMILES | IC50 (HCT-116 cells; Homo sapiens, HCT-116) | IC50 (CACO-2 cells; [2]) | IC50 (HT-29 cells; Homo sapiens, HT-29, monolayer) | also measured
1 | CCOC(=O)/C(=C/c1ccccc1)NC(=O)C=Cc1ccccc1 [Compound 15EE, Ethyl (Z)-2-cinnamamido-3-phenylacrylate] | – | – | – | melting point: 153 °C
2 | O=C(C=Cc1ccccc1)N/C(=C\c1ccccc1)C(=O)NC1CCCC1 [Compound 1503, (Z)-2-cinnamamido-N-cyclopentyl-3-phenylacrylamide] | 48.5 ± 3.1 µM | – | – | melting point: 239 °C
3 | O=C(C=Cc1ccccc1)N/C(=C\c1ccccc1)C(=O)NC12CC3CC(CC(C3)C1)C2 [Compound 1505, (Z)—N-(1-adamantanyl)-2-cinnamamido-3-phenylacrylamide] | 14.7 ± 0.3 µM | – | – | solubility (Solubility profile): poor solubility
4 | O=C(/C=C/c1ccccc1)N/C(=C\c1ccccc1)C(=O)Nc1cccnc1 [Compound 1507, (Z)-2-[(E)-cinnamamido]-3-phenyl-N-(3-pyridyl)acrylamide] | > 100 µM | – | – | melting point: > 250 °C (dec.)
5 | O=C(/C=C/c1ccccc1)N/C(=C\c1ccccc1)C(=O)NCCO [Compound 1532, (Z)-2-[(E)-cinnamamido]-N-(2-hydroxyethyl)-3-phenyl-acrylamide] | > 100 µM | – | – | melting point: 204 °C
6 | CCCNC(=O)/C(=C/c1ccc(F)cc1)NC(=O)/C=C/c1ccc(Cl)cc1 [Compound 2312, (Z)-2-[(E)-3-(4-chlorophenyl)acrylamido]-3-(4-fluorophenyl)-N-propylacrylamide] | 3.8 ± 0.24 µM | 2.6 ± 0.233 µM | 4 ± 0.14 µM | IC50 [1]: < 5 µM
7 | CCCNC(=O)/C(=C/c1ccc(N(C)C)cc1)NC(=O)/C=C/c1ccc(Cl)cc1 [Compound 2812, (Z)-2-[(E)-3-(4-chlorophenyl)acrylamido]-3-[4-(dimethylamino)phenyl]-N-propylacrylamide] | 20.7 ± 0.32 µM | 17 ± 0.8 µM | 9.52 ± 0.42 µM | IC50 [1]: < 5 µM
8 | CCCNC(=O)/C(=C/c1ccc(O)c(OC)c1)NC(=O)/C=C/c1cccs1 [Compound 3612, (Z)-3-(4-hydroxy-3-methoxyphenyl)-N-propyl-2-[(E)-3-(thien-2-yl)acrylamidolacry]amide] | – | – | – | IC50 (CACO-2 cells; 72 h exposure): 28.3 ± 1.3 µM; IC50 (HT-29 cells; monolayer): 48.3 ± 1.9 µM; IC50 (HCT-116 cells): 24.8 ± 1.4 µM
9 | CCCNC(=O)/C(=C/c1c[nH]c2ccccc12)NC(=O)/C=C/c1ccc(Cl)cc1 [Compound 3812, (Z)-2-[(E)-3-(4-chlorophenyl)acrylamido]-3-(1H-indol-3-yl)-N-propylacrylamide] | 3.51 ± 0.21 µM | 3.35 ± 0.05 µM | 3.41 ± 0.03 µM | IC50 [1]: < 5 µM
10 | CCCNC(=O)/C(=C/c1c[nH]c2ccccc12)NC(=O)/C=C/c1ccc(OC)cc1 [Compound 3912, (Z)-3-(1H-indol-3-yl)-2-[(E)-3-(4-methoxyphenyl)acrylamido]-N-propylacrylamide] | 4.35 ± 0.29 µM | 2.07 ± 0.03 µM | 2.49 ± 0.04 µM | IC50 [1]: < 5 µM
11 | CCCNC(=O)/C(=C/c1c[nH]c2ccccc12)NC(=O)/C=C/c1ccc(C)cc1 [Compound 4012, (Z)-3-(1H-indol-3-yl)-N-propyl-2-[(E)-3-(p-tolyl)acrylamidolacry]amide] | – | – | – | IC50 (CACO-2 cells; 72 h exposure): 2.3 ± 0.08 µM; IC50 (HT-29 cells; monolayer): 3.12 ± 0.06 µM; IC50 (HCT-116 cells): 3.39 ± 0.1 µM
12 | CCCNC(=O)/C(=C/c1cccnc1)NC(=O)C=Cc1ccccc1 [Compound 4212, (Z)-2-cinnamamido-N-propyl-3-(pyridin-3-yl)acrylamide] | 73 ± 2.5 µM | 66 ± 2.2 µM | > 100 µM | –
13 | CCCNC(=O)/C(=C/c1cccnc1)NC(=O)/C=C/c1ccc(Cl)cc1 [Compound 4312, (Z)-2-[(E)-3-(4-chlorophenyl)acrylamido]-N-propyl-3-(pyridin-3-yl)acrylamide] | 49.4 ± 1.9 µM | 47.3 ± 1.9 µM | 36 ± 1.7 µM | –
14 | CCCNC(=O)/C(=C/c1cccnc1)NC(=O)/C=C/c1ccc(OC)cc1 [Compound 4412, (Z)-2-[(E)-3-(4-methoxyphenyl)acrylamido]-N-propyl-3-(pyridin-3-yl)acrylamide] | 52.1 ± 1.6 µM | 38.1 ± 2 µM | 72.7 ± 6.4 µM | –
15 | CCCNC(=O)/C(=C/c1cccnc1)NC(=O)/C=C/c1ccc(C)cc1 [Compound 4512, (Z)—N-propyl-3-(pyridin-3-yl)-2-[(E)-3-(p-tolyl)acrylamidolacry]amide] | – | – | – | IC50 (CACO-2 cells; 72 h exposure): 27 ± 1.8 µM; IC50 (HT-29 cells; monolayer): > 100 µM; IC50 (HCT-116 cells): > 100 µM
16 | CCCNC(=O)/C(=C/c1cccnc1)NC(=O)/C=C/c1cccs1 [Compound 4612, (Z)—N-propyl-3-(pyridin-3-yl)-2-[(E)-3-(thien-2-yl)acrylamidolacry]amide] | – | – | – | IC50 (CACO-2 cells; 72 h exposure): 41.8 ± 1.4 µM; IC50 (HT-29 cells; monolayer): 68.8 ± 6.9 µM; IC50 (HCT-116 cells): > 100 µM
17 | CCCNC(=O)/C(=C/c1ccc([N+](=O)[O-])cc1)NC(=O)C=Cc1ccccc1 [Compound 4712, (Z)-2-cinnamamido-3-(4-nitrophenyl)-N-propylacrylamide] | 17.3 ± 1.3 µM | 44.2 ± 2.7 µM | 23.2 ± 1.9 µM | –
18 | CCCNC(=O)/C(=C/c1ccc([N+](=O)[O-])cc1)NC(=O)/C=C/c1ccc(Cl)cc1 [Compound 4812, (Z)-2-[(E)-3-(4-chlorophenyl)acrylamido]-3-(4-nitrophenyl)-N-propylacrylamide] | > 100 µM | > 100 µM | 36.9 ± 1.5 µM | –
19 | CCCNC(=O)/C(=C/c1ccc([N+](=O)[O-])cc1)NC(=O)/C=C/c1ccc(OC)cc1 [Compound 4912, (Z)-2-[(E)-3-(4-methoxyphenyl)acrylamido]-3-(4-nitrophenyl)-N-propylacrylamide] | > 100 µM | > 100 µM | 74.3 ± 3.6 µM | –
20 | CCCNC(=O)/C(=C/c1ccc([N+](=O)[O-])cc1)NC(=O)/C=C/c1ccc(C)cc1 [Compound 5012, (Z)-3-(4-nitrophenyl)-N-propyl-2-[(E)-3-(p-tolyl)acrylamidolacry]amide] | – | – | – | IC50 (CACO-2 cells; 72 h exposure): > 100 µM; IC50 (HT-29 cells; monolayer): > 100 µM; IC50 (HCT-116 cells): > 100 µM
21 | CCCNC(=O)/C(=C/c1ccc([N+](=O)[O-])cc1)NC(=O)/C=C/c1cccs1 [Compound 5112, (Z)-3-(4-nitrophenyl)-N-propyl-2-[(E)-3-(thien-2-yl)acrylamidolacry]amide] | – | – | – | IC50 (CACO-2 cells; 72 h exposure): 34.2 ± 1.1 µM; IC50 (HT-29 cells; monolayer): > 100 µM; IC50 (HCT-116 cells): > 100 µM
22 | COc1cccc2c1C(=O)c1c(O)c3c(c(O)c1C2=O)C[C@@](O)(C(=O)CO)C[C@@H]3O[C@H]1C[C@H](N)[C@H](O)[C@H](C)O1 [Doxo, doxorubicin, reference compound] | 0.6 ± 0.1 µM | 0.14 ± 0.05 µM | 0.3 ± 0.01 µM | –
